Experimental data reported in patent US12703729B2, “GIP agonist compounds and methods” (Zealand Pharma A/S, priority 2014, dated 2026).
Starred links: 1 amine or outer side, 2 acyl side, 3 side chain; linkers in the order of their positions; H or OH if unused. Non-standard residues stand in square brackets, D forms with d. Residues, ends and D or L forms follow the SMILES beside them. Groups on a side chain read outwards from the residue. *: point of attachment. X1 = O=C(O)CCCCCCCCCCCCCCCCCCC(=O)N1CCN(CC(=O)*)CC1; C20 diacid = O=C(O)CCCCCCCCCCCCCCCCCCC(=O)*; γGlu = O=C(O)[C@H](CCC(=O)[*:2])N[*:1]; AEEA = NCCOCCOCC(=O)O; Aib = CC(C)(N)C(=O)O

Assays:
human GIP R = target: T1, human GIP R (Homo sapiens, UniProt P48546); assay: cell-based
T1 sequence (P48546 22-466): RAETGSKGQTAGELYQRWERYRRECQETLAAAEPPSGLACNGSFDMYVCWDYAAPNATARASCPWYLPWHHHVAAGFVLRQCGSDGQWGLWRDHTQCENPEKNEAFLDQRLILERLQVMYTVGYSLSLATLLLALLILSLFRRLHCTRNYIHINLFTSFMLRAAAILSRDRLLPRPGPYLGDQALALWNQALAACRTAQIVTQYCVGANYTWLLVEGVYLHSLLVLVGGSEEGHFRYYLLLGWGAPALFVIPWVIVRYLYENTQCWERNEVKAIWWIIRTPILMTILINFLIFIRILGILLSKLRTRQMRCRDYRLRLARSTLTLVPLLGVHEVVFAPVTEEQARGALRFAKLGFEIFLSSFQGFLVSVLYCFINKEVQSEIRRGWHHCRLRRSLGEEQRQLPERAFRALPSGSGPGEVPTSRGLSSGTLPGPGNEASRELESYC

[1] = target: T2, human GIP receptor (GIP R) (Homo sapiens, UniProt P48546); assay: Activity assay at human GIP receptor, cAMP induction (AlphaScreen), Example 3
T2 sequence (P48546 22-466): T1 sequence (P48546 22-466)

[2] = target: human GLP-1 receptor (GLP-1R) (Homo sapiens, UniProt P43220); assay: Activity assay at human GLP-1 receptor, cAMP induction (AlphaScreen), Example 3
Chain of human GLP-1 receptor (GLP-1R) (P43220 24-463): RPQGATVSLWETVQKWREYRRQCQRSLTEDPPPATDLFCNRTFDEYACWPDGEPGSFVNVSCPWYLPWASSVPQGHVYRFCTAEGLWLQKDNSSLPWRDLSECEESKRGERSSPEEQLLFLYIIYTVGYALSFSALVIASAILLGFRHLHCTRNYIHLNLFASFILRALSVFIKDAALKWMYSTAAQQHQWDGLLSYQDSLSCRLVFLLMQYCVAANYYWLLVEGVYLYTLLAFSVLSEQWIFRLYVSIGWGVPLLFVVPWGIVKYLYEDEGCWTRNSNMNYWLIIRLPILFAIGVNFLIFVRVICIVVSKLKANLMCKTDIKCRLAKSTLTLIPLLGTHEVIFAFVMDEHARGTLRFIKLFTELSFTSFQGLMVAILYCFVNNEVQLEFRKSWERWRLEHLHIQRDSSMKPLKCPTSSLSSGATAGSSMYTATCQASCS

in vivo = conditions: male, C57BL/6J, mouse; for bioavailability: Bioavailability s.c.; for half-life: 200 nmol/kg
[3] = iv, Terminal elimination half-life T½ i.v.
[4] = sc, Terminal elimination half-life T½ s.c.

CC[C@H](C)[C@H](NC(=O)[C@H](CO)NC(=O)[C@H](Cc1ccc(O)cc1)NC(=O)[C@H](CC(=O)O)NC(=O)[C@H](CO)NC(=O)[C@@H](NC(=O)[C@H](Cc1ccccc1)NC(=O)[C@@H](NC(=O)CNC(=O)[C@H](CCC(=O)O)NC(=O)C(C)(C)NC(=O)[C@@H](N)Cc1ccc(O)cc1)[C@@H](C)O)[C@@H](C)CC)C(=O)N[C@@H](CCC(=O)O)C(=O)N[C@@H](CC(C)C)C(=O)N[C@@H](CC(=O)O)C(=O)N[C@@H](CCCCN)C(=O)N[C@@H](CCCCNC(=O)COCCOCCNC(=O)COCCOCCNC(=O)CC[C@H](NC(=O)CCCCCCCCCCCCCCCCCCC(=O)O)C(=O)O)C(=O)N[C@@H](C)C(=O)N[C@@H](C)C(=O)N[C@@H](CCC(N)=O)C(=O)N[C@@H](CC(=O)O)C(=O)N[C@@H](Cc1ccccc1)C(=O)N[C@H](C(=O)N[C@@H](CC(N)=O)C(=O)N[C@@H](Cc1c[nH]c2ccccc12)C(=O)N[C@@H](CC(C)C)C(=O)N[C@@H](CC(C)C)C(=O)N[C@@H](C)C(=O)N[C@@H](CCC(N)=O)C(=O)NCC(=O)N1CCC[C@H]1C(=O)N[C@@H](CO)C(=O)N[C@@H](CO)C(=O)NCC(=O)N[C@@H](C)C(=O)N1CCC[C@H]1C(=O)N1CCC[C@H]1C(=O)N1CCC[C@H]1C(=O)N[C@@H](CO)C(N)=O)C(C)C [Compound 10] (H-Y[Aib]EGTFISDYSIELDKK([AEEA-AEEA-γGlu-C20 diacid])AAQDFVNWLLAQGPSSGAPPPS-NH2)
EC50 (human GIP R): 7 pM | EC50 [1]: 8 pM | EC50 [2]: > 10000 pM | bioavailability (in vivo): 100% | half-life (in vivo; [3]): 16.9 h | Tmax (in vivo; sc): 4 h | half-life (in vivo; [4]): 21.1 h | bioavailability (in vivo; sc, repeated test): 77%

CC[C@H](C)[C@H](NC(=O)[C@H](CO)NC(=O)[C@H](Cc1ccc(O)cc1)NC(=O)[C@H](CC(=O)O)NC(=O)[C@H](CO)NC(=O)[C@@H](NC(=O)[C@H](Cc1ccccc1)NC(=O)[C@@H](NC(=O)CNC(=O)[C@H](CCC(=O)O)NC(=O)C(C)(C)NC(=O)[C@@H](N)Cc1ccc(O)cc1)[C@@H](C)O)[C@@H](C)CC)C(=O)N[C@@H](CCC(=O)O)C(=O)N[C@@H](CC(C)C)C(=O)N[C@@H](CCC(=O)O)C(=O)N[C@@H](CCCCN)C(=O)N[C@@H](CCCCNC(=O)COCCOCCNC(=O)COCCOCCNC(=O)CC[C@H](NC(=O)CCCCCCCCCCCCCCCCCCC(=O)O)C(=O)O)C(=O)N[C@@H](C)C(=O)N[C@@H](CCC(N)=O)C(=O)N[C@@H](CCCNC(=N)N)C(=O)N[C@@H](C)C(=O)N[C@@H](Cc1ccccc1)C(=O)N[C@H](C(=O)N[C@@H](CCC(=O)O)C(=O)N[C@@H](Cc1c[nH]c2ccccc12)C(=O)N[C@@H](CC(C)C)C(=O)N[C@@H](CC(C)C)C(=O)N[C@@H](C)C(=O)N[C@@H](CCC(N)=O)C(=O)NCC(=O)N1CCC[C@H]1C(=O)N[C@@H](CO)C(=O)N[C@@H](CO)C(=O)NCC(=O)N[C@@H](C)C(=O)N1CCC[C@H]1C(=O)N1CCC[C@H]1C(=O)N1CCC[C@H]1C(=O)N[C@@H](CO)C(N)=O)C(C)C [Compound 12]
EC50 (human GIP R): 9 pM | EC50 [1]: 9 pM | EC50 [2]: > 3000 pM | bioavailability (in vivo): 77% | half-life (in vivo; [3]): 14.7 h | Tmax (in vivo; sc): 8 h | half-life (in vivo; [4]): 16.8 h | bioavailability (in vivo; sc, repeated test): 98%

CC[C@H](C)[C@H](NC(=O)[C@H](CCCCN)NC(=O)[C@H](CC(=O)O)NC(=O)[C@H](CC(C)C)NC(=O)[C@H](CCC(=O)O)NC(=O)[C@@H](NC(=O)[C@H](CO)NC(=O)[C@H](Cc1ccc(O)cc1)NC(=O)[C@H](CC(=O)O)NC(=O)[C@H](CO)NC(=O)[C@@H](NC(=O)[C@H](Cc1ccccc1)NC(=O)[C@@H](NC(=O)CNC(=O)[C@H](CCC(=O)O)NC(=O)[C@@H](C)NC(=O)[C@@H](N)Cc1ccc(O)cc1)[C@@H](C)O)[C@@H](C)CC)[C@@H](C)CC)C(=O)N[C@@H](C)C(=O)N[C@@H](C)C(=O)N[C@@H](CCC(N)=O)C(=O)N[C@@H](CC(=O)O)C(=O)N[C@@H](Cc1ccccc1)C(=O)N[C@H](C(=O)N[C@@H](CCC(=O)O)C(=O)N[C@@H](Cc1c[nH]c2ccccc12)C(=O)N[C@@H](CC(C)C)C(=O)N[C@@H](CC(C)C)C(=O)N[C@@H](C)C(=O)NCC(=O)N1CCC[C@H]1C(=O)N[C@@H](CO)C(=O)N[C@@H](CO)C(=O)NCC(=O)N[C@@H](C)C(=O)N1CCC[C@H]1C(=O)N1CCC[C@H]1C(=O)N1CCC[C@H]1C(=O)N[C@@H](CO)C(=O)N[C@@H](CCCCNC(=O)COCCOCCNC(=O)COCCOCCNC(=O)CN1CCN(C(=O)CCCCCCCCCCCCCCCCCCC(=O)O)CC1)C(N)=O)[C@@H](C)CC [Compound 37] (H-Y[dA]EGTFISDYSIELDKIAAQDFIEWLLAGPSSGAPPPSK([AEEA-AEEA-X1])-NH2)
EC50 (human GIP R): 16 pM | EC50 [1]: 6 pM | EC50 [2]: > 10000 pM

CC[C@H](C)[C@H](NC(=O)[C@H](Cc1ccccc1)NC(=O)[C@H](CC(=O)O)NC(=O)[C@H](CCC(N)=O)NC(=O)[C@H](C)NC(=O)[C@H](C)NC(=O)[C@H](CCCCNC(=O)COCCOCCNC(=O)COCCOCCNC(=O)CC[C@H](NC(=O)CCCCCCCCCCCCCCCCCCC(=O)O)C(=O)O)NC(=O)[C@H](CCCCN)NC(=O)[C@H](CC(=O)O)NC(=O)[C@H](CC(C)C)NC(=O)[C@H](CCC(=O)O)NC(=O)[C@@H](NC(=O)[C@H](CO)NC(=O)[C@H](Cc1ccc(O)cc1)NC(=O)[C@H](CC(=O)O)NC(=O)[C@H](CO)NC(=O)[C@@H](NC(=O)[C@H](Cc1ccccc1)NC(=O)[C@@H](NC(=O)CNC(=O)[C@H](CCC(=O)O)NC(=O)C(C)(C)NC(=O)[C@@H](N)Cc1ccc(O)cc1)[C@@H](C)O)[C@@H](C)CC)[C@@H](C)CC)C(=O)N[C@@H](CCC(=O)O)C(=O)N[C@@H](Cc1c[nH]c2ccccc12)C(=O)N[C@@H](CC(C)C)C(=O)N[C@@H](CC(C)C)C(=O)N[C@@H](C)C(=O)N[C@@H](CCC(N)=O)C(=O)NCC(=O)N1CCC[C@H]1C(=O)N[C@@H](CO)C(=O)N[C@@H](CO)C(=O)NCC(=O)N[C@@H](C)C(=O)N1CCC[C@H]1C(=O)N1CCC[C@H]1C(=O)N1CCC[C@H]1C(=O)N[C@@H](CO)C(N)=O [Compound 38] (H-Y[Aib]EGTFISDYSIELDKK([AEEA-AEEA-γGlu-C20 diacid])AAQDFIEWLLAQGPSSGAPPPS-NH2)
EC50 (human GIP R): 1 pM | EC50 [1]: 17 pM | EC50 [2]: > 100000 pM

CC[C@H](C)[C@H](NC(=O)[C@H](Cc1ccccc1)NC(=O)[C@H](CC(=O)O)NC(=O)[C@H](CCC(N)=O)NC(=O)[C@H](C)NC(=O)[C@H](C)NC(=O)[C@H](CCCCNC(=O)COCCOCCNC(=O)COCCOCCNC(=O)CC[C@H](NC(=O)CCCCCCCCCCCCCCCCCCC(=O)O)C(=O)O)NC(=O)[C@H](CCCCN)NC(=O)[C@H](CC(=O)O)NC(=O)[C@H](CC(C)C)NC(=O)[C@H](CCC(=O)O)NC(=O)[C@@H](NC(=O)[C@H](CO)NC(=O)[C@H](Cc1ccc(O)cc1)NC(=O)[C@H](CC(=O)O)NC(=O)[C@H](CO)NC(=O)[C@@H](NC(=O)[C@H](Cc1ccccc1)NC(=O)[C@@H](NC(=O)CNC(=O)[C@H](CCC(=O)O)NC(=O)C(C)(C)NC(=O)[C@@H](N)Cc1ccc(O)cc1)[C@@H](C)O)[C@@H](C)CC)[C@@H](C)CC)C(=O)N[C@@H](CC(N)=O)C(=O)N[C@@H](Cc1c[nH]c2ccccc12)C(=O)N[C@@H](CC(C)C)C(=O)N[C@@H](CC(C)C)C(=O)N[C@@H](C)C(=O)N[C@@H](CCC(N)=O)C(=O)NCC(=O)N1CCC[C@H]1C(=O)N[C@@H](CO)C(=O)N[C@@H](CO)C(=O)NCC(=O)N[C@@H](C)C(=O)N1CCC[C@H]1C(=O)N1CCC[C@H]1C(=O)N1CCC[C@H]1C(=O)N[C@@H](CO)C(N)=O [Compound 39] (H-Y[Aib]EGTFISDYSIELDKK([AEEA-AEEA-γGlu-C20 diacid])AAQDFINWLLAQGPSSGAPPPS-NH2)
EC50 (human GIP R): 7 pM | EC50 [1]: 1 pM | EC50 [2]: > 100000 pM

CC[C@H](C)[C@H](NC(=O)[C@H](Cc1ccccc1)NC(=O)[C@H](C)NC(=O)[C@H](CCC(N)=O)NC(=O)[C@H](C)NC(=O)[C@H](C)NC(=O)[C@H](CCCCNC(=O)COCCOCCNC(=O)COCCOCCNC(=O)CC[C@H](NC(=O)CCCCCCCCCCCCCCCCCCC(=O)O)C(=O)O)NC(=O)[C@H](CCCCN)NC(=O)[C@H](CC(=O)O)NC(=O)[C@H](CC(C)C)NC(=O)[C@H](CCC(=O)O)NC(=O)[C@@H](NC(=O)[C@H](CO)NC(=O)[C@H](Cc1ccc(O)cc1)NC(=O)[C@H](CC(=O)O)NC(=O)[C@H](CO)NC(=O)[C@@H](NC(=O)[C@H](Cc1ccccc1)NC(=O)[C@@H](NC(=O)CNC(=O)[C@H](CCC(=O)O)NC(=O)C(C)(C)NC(=O)[C@@H](N)Cc1ccc(O)cc1)[C@@H](C)O)[C@@H](C)CC)[C@@H](C)CC)C(=O)N[C@@H](CCC(=O)O)C(=O)N[C@@H](Cc1c[nH]c2ccccc12)C(=O)N[C@@H](CC(C)C)C(=O)N[C@@H](CC(C)C)C(=O)N[C@@H](C)C(=O)N[C@@H](CCC(N)=O)C(=O)NCC(=O)N1CCC[C@H]1C(=O)N[C@@H](CO)C(=O)N[C@@H](CO)C(=O)NCC(=O)N[C@@H](C)C(=O)N1CCC[C@H]1C(=O)N1CCC[C@H]1C(=O)N1CCC[C@H]1C(=O)N[C@@H](CO)C(N)=O [Compound 40]
EC50 (human GIP R): 10 pM | EC50 [1]: 7 pM | EC50 [2]: > 10000 pM
